According to a melting point compilation (Tetko et al.; mined from patent text by program, amines drawn as free bases though some values may be those of a salt):

Structure (SMILES)	melting point [°C]
O=c1[nH]c2ncc(-c3cccc(-c4nc[nH]n4)c3)nc2n1CC1CCCCC1	305 to 307
CC(C)[C@H]1[C@@H](O)CC(=O)N1c1ccc(C#N)c(Cl)c1	100 to 102
O=C(O)Cc1ccnc2c(NC(=O)c3c(Cl)cccc3Cl)cccc12	228 to 230
Cn1ncc(CO)c1-c1ccc(Cl)cc1C(O)c1ccccc1F (stereo not drawn)	152 to 155
NC(CCO)C(=O)Nc1ccc(Cl)cc1Cl (stereo not drawn)	89 to 91
COc1cc2c(Nc3ccc(Cl)cc3F)ncnc2cc1OCCNC1CCCC1	171 to 173
Cc1nc(C)n(-c2cc([C@@H]3C[C@H]3c3nc4ccccc4n3C)nc(C#N)n2)n1 (relative stereo)	229 to 231
N#Cc1cnc2cc(/C=C/CCCCCCCCCN3CCOCC3)ccc2c1Nc1ccc(Cl)cc1Cl	105 to 106
Cn1c(CNc2ccc(Oc3cccc(C(F)(F)F)c3)cc2)nc([N+](=O)[O-])c1C#N	124 to 126
O=[N+]([O-])c1cc(S(=O)(=O)C(F)(F)F)[nH]c1-c1ccc(Cl)cc1	97 to 99
CCc1cc(=O)c(I)c(CC)[nH]1	225 to 227
CCn1c(C(C)NS(=O)(=O)c2ccc(Cl)c(Cl)c2)cnc1Sc1ccc(C)cc1 (stereo not drawn)	173 to 174
Cc1noc(C)c1NC(=O)c1ccc(OC(F)F)c2oc(C3CCOC3)cc12 (stereo not drawn)	156
COc1cc2c(cc1CCNC(=O)c1cc(OC)c(OC)c(OC)c1)CCC2	144 to 145
CC(Cc1ccccc1)(C(=NC#N)NCCc1ccccc1)c1ccccn1 (stereo not drawn)	162 to 164
CC(C)c1ccc(N(Cc2cnn(Cc3ccc(Cl)s3)c2)C(=O)C2CCCc3c(O)cccc32)cn1 (stereo not drawn)	98 to 101
CON=C1C(c2ccccc2)=C(c2ccc(S(C)(=O)=O)cc2)C1(C)C	146 to 147
C=Cc1ccc(C(C#N)C#N)cc1	40 to 42
O=C(O)c1cc2c(s1)CCC2=O	195 to 196
C=CCOc1ccccc1OCC=Cc1ccc(OC)c(OC)c1	60 to 60.5
CC(C)c1cccc(C(C)C)c1NC(=O)CNC(c1ccccn1)c1ccccn1	134 to 135
CCCN(C(N)=S)C(c1ccncc1)C1CC1 (stereo not drawn)	171
O=c1[nH]c2ccc(Cl)cc2c(=O)n1CCCS	255 to 257
COC(=O)c1nc(CI)n(-c2ccc(Cl)cc2C(=O)c2ccccc2)n1	139 to 142
O=C1NC(=O)C(c2c[nH]c3ccccc23)=C1c1c[nH]c2ccccc12	234
N#CCSc1ncc2ccccn12	120 to 122
CN(C)CCOc1ccc(N(CCN(C)C)c2nccc(-c3ccncc3)n2)cc1	87 to 91
Cc1c(C)c(NC(=O)CC(C)(C)C)c2c(c1C)C(c1ccc(C(C)C)cc1)C(C)(C)O2 (stereo not drawn)	152 to 153

Structure (SMILES)	melting point [°C]
Oc1cccc2c1C=CC=CN2	132 to 136
Nc1c(F)c(N2CCC(n3ccnn3)CC2)c(F)c2c1c(=O)c(C(=O)O)cn2C1CC1	274 to 276
CC(OS(C)(=O)=O)C(C)n1ncn(-c2ccc(N3CCN(c4ccc(OCC5COC(Cn6cncn6)(c6ccc(F)cc6F)O5)cc4)CC3)cc2)c1=O (stereo not drawn)	172
O=C(NCC12CC3CC(CC(C3)C1)C2)c1cccc(F)c1Cl	149 to 151
CCc1nc(NCC(C)O)c2c(n1)c(C)nn2C (stereo not drawn)	116 to 119
Clc1ccc(-c2csc(NCc3cnc(NCc4ccccc4)s3)n2)cc1	105 to 106
NS(=O)(=O)c1ccc(-n2nc(CCCNC(=O)Nc3ccc(Cl)cc3)cc2-c2ccccc2)cc1	103 to 110
ClCc1coc(/C=C/c2ccccc2)n1	72 to 73
CC(C)c1nc(CCCO)n(CCO)c1Sc1cc(Cl)cc(Cl)c1	155 to 163
COc1ccc(-c2ccc(NN)nn2)cc1OC(C)C	116
CCc1c(-c2ccc(O)cc2)c2cc(C(C)=O)c3cc(O)cc1n32	274 to 275
COC(=O)c1cc(C(C)OC(C)C)c(C(F)(F)F)cc1N (stereo not drawn)	87 to 90
Brc1ccc2c(c1)N=C(NCc1cccnc1)c1ccccc1N2	152 to 155
COC(=O)C=C(Nc1coc2ccc(Cl)cc2c1=O)C(=O)OC	158 to 160
COc1ccc(Cn2c(=O)c(C#N)c(Cl)c3cc(F)cnc32)cc1	195
Cc1ccc(S(=O)(=O)OCCN(CCOS(=O)(=O)c2ccc(C)cc2)Sc2ccccc2[N+](=O)[O-])cc1	91 to 93
Cc1onc(NS(=O)(=O)c2ccccc2-c2ccc(-c3ncco3)cc2Cn2ccc(C(F)(F)F)n2)c1C	89 to 99
c1csc(-c2cn([C@H]3CN4CCC3CC4)nn2)c1	137
O=S(=O)(NCCCCOc1ccc(-c2cc[nH]n2)cc1)c1ccc(Br)cc1	157 to 158
N#Cc1cnn2c1N(C(=O)CCl)CC=C2c1cccc(C(F)(F)F)c1	179 to 181
N=C(N)Cc1ccccc1-n1cnc2cnc3ccc(-c4ccccc4)cc3c21	261 to 263
COc1cc2c(cc1C(F)(F)F)N(C(=O)Nc1cccc(C(=O)Nc3cccnc3)c1)CC2	> 220
COc1cc(C)c(C(=O)c2c(Cl)cccc2Cl)c(OC)c1OC	92
COc1ccccc1SCc1c(C(C)C)nc(C(C)C)c(CO)c1-c1ccc(F)cc1	129 to 131
O=CN1CCC(=C2c3ccc(Cl)cc3CCc3cccnc32)CC1	147 to 149
O=C1CCC(c2ccc(O)cc2)N1 (stereo not drawn)	183
FC1(F)c2ccccc2C(F)(F)C(F)(F)c2ccccc21	53 to 55

Other lines, results leading:

melting point [°C]	Structure (SMILES)
191 to 193	CCC(OC(=O)CO)c1ccc(Cl)c2nc3n(c12)CCCN3c1ccc(Cl)cc1Cl (stereo not drawn)
107 to 110	COC(=O)C1=C(C)Nc2ccccc2SC1c1ccc(OC)cc1 (stereo not drawn)
166 to 169	CC1(CO)Cc2nnc(-c3ccc(-c4ccccc4)cc3Cl)n2CCS1 (stereo not drawn)
94 to 97	COc1ccc(C2=NN(CCCO)C(=O)[C@H]3CCCC[C@@H]23)cc1OC (relative stereo)
153 to 156	Cc1nc(N2CCN(Cc3ccccc3C(=O)O)C2=O)sc1C(=O)NCc1ccccc1
63 to 65	COC(=O)c1nc(Cl)sc1-c1ccccc1
97 to 100	CC(=O)c1ccc2c(C(=O)c3ccc(OCCN4CCCCC4)cc3)c(-c3ccc(O)cc3)sc2c1
63 to 65	CC(C)(Br)C(=O)OCCN1C(=O)c2ccccc2C1=O
134 to 135	CS(=O)(=O)c1ccc(OCC2CCN(CC3CC3)CC2)cc1
188 to 190	CCOC(=O)CNC(=O)C[C@H]1O[C@@H](c2ccccc2)c2cc(Cl)ccc2N(C(C)C)C1=O (relative stereo)
240 to 245	Cc1c(C)c(N2CCN(c3ccc(C(N)=O)cc3)CC2)c(C)c2c1OC(C)C2 (stereo not drawn)
168 to 170	C=C1C(=O)NC(=O)N1c1ccccc1
82 to 84.5	CCOC(=O)C(CBr)=NOC(=O)c1ccc(Cl)cc1
83 to 86	CCN(C(=O)CC(OC)(C(F)(F)F)C(F)(F)F)c1cn(-c2cccnc2)nc1C
244 to 245	Cc1n[nH]c(C)c1C(=O)Nc1ccccc1
202 to 204	CCCCc1nc2cc(F)ccc2n1Cc1ccc(C(=O)O)cc1
95 to 97	CCCNC(=S)NCCc1cccc2ccc(OC)cc12
189 to 190	Cc1oc2c(NC(=O)c3c(Cl)cccc3Cl)cccc2c1CC1CCCCC1
122 to 124	O=C1NCC(CN2CCN(c3cccc(C(F)(F)F)c3)CC2)O1 (stereo not drawn)
77.8 to 81.1	CCCCc1nc(C)c(CCC(=S)N(CC)CC)c(=O)n1Cc1ccc(-c2ccccc2-c2nnn[nH]2)cc1
100 to 102	Cn1c(C(CCN2CCC(O)(c3ccccc3)CC2)c2ccc(Cl)c(Cl)c2)cc2ccccc2c1=O (stereo not drawn)
63 to 64	CCOC(=O)C(C(=O)OCC)(c1ccccc1)N1CCN(CCO)CC1

melting point [°C]	Structure (SMILES)
109 to 111	COc1cc(CCNC(=O)N(C)O)ccc1OCc1ccccc1
141 to 143	Clc1ccc2c(c1)N=C(N1CCCN(C3CC3)CC1)c1ccccc1N2
132	CCCOc1c(-c2ccccc2)n[nH]c1-c1ccccc1
184 to 185	O=c1ccc(-c2c(-c3ccccc3)nn3ccccc23)nn1C1CCN(Cc2ccccc2)CC1
110 to 112	Cc1oc(-c2ccccc2)nc1CCOc1ccc([N+](=O)[O-])cn1
157 to 159	CNC(=O)c1cnn(-c2ccccc2)c1Br
148 to 151	Cc1cccc(NC(=O)NC2CN(C(=O)C3CCCCC3)c3ccccc3N(CC(=O)c3ccccc3C)C2=O)c1 (stereo not drawn)
236 to 238	N#Cc1cccc(-c2c(C(N)=O)c3n(c2Cl)CCN(C(=O)NC2CCOCC2)C3)c1
156 to 158	Cc1nc(CO)n(Cc2ccccc2)c1C
107	COC(=O)C1Oc2ccc(C3CCCCC3)cc2C(C)(c2ccccc2)O1 (stereo not drawn)
79 to 80	CCOC(=O)CCCCCCC(NC(N)=O)C(=O)OCC (stereo not drawn)
258	O=c1[nH]c2ccc(O)cc2c(=O)n1CCN1CCC(c2c[nH]c3ccccc23)CC1
184 to 186	CNc1ccc(N)cc1C(=O)n1nc(O)c2ccccc21
159 to 162	COc1ccccc1N1CCN(CC2(C)N=C(c3cccnc3)NC2=O)CC1 (stereo not drawn)
114	O=C1c2ccccc2C(=O)N1C1CC=CCC1 (stereo not drawn)
198 to 200	CCCCNC(=O)NS(=O)(=O)c1ccc(CCNC(=O)N2CC(C)=C(C)C2=O)cc1
185 to 189	CNC(=O)c1ccc(N2CCN(Cc3cc4c(c(-c5ccccc5)c3)OC(C)C(=O)N4)CC2)cc1 (stereo not drawn)
155 to 159	COC(=O)CCCNC(=O)c1cc(O)ccc1O
220	N#C/C(=C\c1cc(O)c(O)c(I)c1)C(=O)NCc1ccccc1
211 to 213	O=C(O)CCn1nc(-c2c(-c3ccccc3)nn3ccccc23)cc1O
74 to 81	CCOCCn1c(N2CCCN(CCC3(c4ccc(Cl)cc4)CCN(C(=O)c4cc(OC)c(OC)c(OC)c4)C3)CC2)nc2ccccc21 (stereo not drawn)
